{"source": "patent US20170035894A1", "about": "“DRUG DELIVERY CONJUGATES FOR TREATING RESISTANT CANCER AND FOR USE IN COMBINATION THERAPY” (ENDOCYTE, INC., priority 2014, published 2017)", "key": {"ST502 tumors": {"system": "ST502 tumors", "assay": "TNBC PDX tumor model", "format": "in vivo, Balb/c nu/nu mice", "conditions": "combined with Eribulin mesylate 1 mg/kg", "procedure": "(§1) Female Balb/c nu/nu mice were fed ad libitum with folate-deficient chow (Harlan diet #TD01013) for the duration of the experiment. Primary human Endometrial model ST040, TNBC models 5T502 and ST738 and Ovarian model ST024 fragments (2-4 mm in diameter) were inoculated subcutaneously at the right flank of each mouse. Mice were randomized into 6 experimental groups of 5 or 3 mice each and test articles were injected through the lateral tail vein under sterile conditions in a volume of 200 μL of phosphate-buffered saline (PBS).\n(§2) Growth of each s.c. tumor was followed by measuring the tumor two times per week until a volume of 1200 mm^3 was reached. Tumors were measured in two perpendicular directions using Vernier calipers, and their volumes were calculated as 0.5×L×W^2, where L=measurement of longest axis in mm and W=measurement of axis perpendicular to L in mm."}, "ST738 tumors": {"system": "ST738 tumors", "assay": "TNBC PDX tumor model", "format": "in vivo, Balb/c nu/nu mice", "conditions": "combined with Eribulin mesylate 1 mg/kg", "procedure": "as §1, §2"}, "[1]": {"target": "T1, folate receptors (FRs) on KB cells (Homo sapiens, UniProt P15328)", "T1 construct": "FR-positive KB cells were heavily seeded into 24-well cell culture plates; endogenous in cells; host or cells: KB cells (human cervical carcinoma)", "T1 sequence (P15328 25-234)": "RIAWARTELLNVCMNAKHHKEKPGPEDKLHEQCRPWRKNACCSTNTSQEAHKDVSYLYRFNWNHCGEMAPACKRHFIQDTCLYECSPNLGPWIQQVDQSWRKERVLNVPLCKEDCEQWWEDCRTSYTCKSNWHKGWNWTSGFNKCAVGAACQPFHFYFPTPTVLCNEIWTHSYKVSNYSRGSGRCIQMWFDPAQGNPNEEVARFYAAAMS", "assay": "Relative Affinity Assay (3H-folic acid displacement)", "format": "binding", "procedure": "METHOD. Relative Affinity Assay. […] Briefly, FR-positive KB cells were heavily seeded into 24-well cell culture plates and allowed to adhere to the plastic for 18 h. Spent incubation media was replaced in designated wells with folate-free RPMI (FFRPMI) supplemented with 100 nM ^3H-folic acid in the absence and presence of increasing concentrations of test article or folic acid. Cells were incubated for 60 min at 37° C. and then rinsed 3 times with PBS, pH 7.4. […] Cell lysates were then collected and added to individual vials containing 5 mL of scintillation cocktail, and then counted for radioactivity. Negative control tubes contained only the ^3H-folic acid in FFRPMI (no competitor). Positive control tubes contained a final concentration of 1 mM folic acid, and CPMs measured in these samples (representing non-specific binding of label) were subtracted from all samples."}, "MDA-MB-231 tumors": {"system": "MDA-MB-231 tumors", "assay": "TNBC Tumor Assay, s.c. MDA-MB-231 xenografts", "format": "in vivo, nu/nu mice", "from_the_text": "METHOD. TNBC Tumor Assay. Triple negative breast cancer (TNBC) is a subtype characterized by lack of gene expression for estrogen, progesterone and Her2/neu. TNBC is difficult to treat, and the resulting death rate in patients is reportedly disproportionately higher than for any other subtype of breast cancer. A TNBC xenograft model was generated in an analogous way to the KB and M109 models described herein by implanting MDA-MB-231 breast cancer cells in nu/nu mice. Dosing was initiated when the s.c. tumors have an average volume between 110-150 (generally 130) mm^3 (t0), typically 17 days post tumor inoculation (PTI). Test animals (5/group) were injected i.v., generally three times a week (TIW), for 2-3 weeks with varying doses, such as with 1 μmol/kg to 5 μmol/kg, of the drug delivery conjugate or with an equivalent dose volume of PBS (control), unless otherwise indicated. Dosing solutions were prepared fresh each day in PBS and administered through the lateral tail vein of the mice."}, "[2]": {"system": "KB-CR2000 (cisplatin resistant) tumors", "assay": "Cisplatin-resistant KB-CR2000 tumor model", "format": "in vivo, mice", "from_the_text": "METHOD. Human cisplatin-resistant cell line. […] In addition, regrowth of the tumor was only observed in 1/5 test animals."}, "[3]": {"conditions": "EC1456 2 μmol/kg two times a week for two weeks"}, "[4]": {"conditions": "EC1456 4 μmol/kg once a week for two weeks"}, "[5]": {"conditions": "2 μmol/kg i.v. TIW 2 weeks, nearly 70 day observation period"}}, "data": [{"smiles": "CCCC(=O)OCN(C(=O)[C@@H](NC(=O)[C@H]1CCCCN1C)C(C)CC)[C@H](C[C@@H](OC(C)=O)c1nc(C(=O)N[C@@H](Cc2ccc(O)cc2)C[C@H](C)C(=O)NNC(=O)OCCSSC[C@@H](NC(=O)[C@H](CCC(=O)NC[C@H](O)[C@@H](O)[C@H](O)[C@H](O)CO)NC(=O)[C@@H](CCC(=O)O)NC(=O)[C@H](CCC(=O)NC[C@H](O)[C@@H](O)[C@H](O)[C@H](O)CO)NC(=O)[C@@H](CCC(=O)O)NC(=O)[C@H](CCC(=O)NC[C@H](O)[C@@H](O)[C@H](O)[C@H](O)CO)NC(=O)CC[C@@H](NC(=O)c2ccc(NCc3cnc4nc(N)[nH]c(=O)c4n3)cc2)C(=O)O)C(=O)O)cs1)C(C)C", "note": "(stereo in doubt) [EC1456]", "values": [{"measurement": "animals exhibiting CRs", "setting": "ST502 tumors; [3]", "value": 5, "unit": "animals"}, {"measurement": "animals exhibiting cures", "setting": "ST502 tumors; [3]", "value": 2, "unit": "animals"}, {"measurement": "animals exhibiting CR's", "setting": "ST502 tumors; [4]", "value": 3, "unit": "animals"}, {"measurement": "animals exhibiting PR's", "setting": "ST502 tumors; [4]", "value": 4, "unit": "animals"}, {"measurement": "animals exhibiting cures", "setting": "ST738 tumors; [3]", "value": 7, "unit": "animals"}, {"measurement": "animals exhibiting PR's", "setting": "ST738 tumors; [4]", "value": 2, "unit": "animals"}, {"measurement": "animals exhibiting cures", "setting": "ST738 tumors; [4]", "value": 4, "unit": "animals"}, {"measurement": "Relative Affinity (a)", "setting": "[1]", "value": 0.27}, {"measurement": "tumor regrowth", "setting": "MDA-MB-231 tumors; 2 μmol/kg i.v. TIW 2 weeks, observation window nearly 135 days", "value": "regrowth did not occur"}, {"measurement": "complete responses (tumor volume reduced to zero)", "setting": "MDA-MB-231 tumors; 2 μmol/kg intravenous, three times per week, 2 consecutive weeks", "value": "4 of 5"}, {"measurement": "regrowth of the tumor, test animals", "setting": "[2]; [5]", "value": "1/5"}, {"measurement": "test animals cured (no regrowth)", "setting": "[2]; [5]", "value": "4/5"}, {"measurement": "CRs", "setting": "[2]; 2 μmol/kg i.v. three times per week, 2 weeks", "value": "5/5"}]}]}
